Source: patent publication US8629168B2, “Benzoxazoles and oxazolopyridines being useful as janus kinases inhibitors” (priority 2006, dated 2014)

How the values were obtained:
GST-JAK2(808-1132) = biological target: T1, GST-JAK2(808-1132) (Homo sapiens, UniProt O60674); assay: EPK JAK/TYK-kinase family profiling assay (Caliper mobility shift), JAK2; type: biochemical; settings: Caliper mobility shift assay of Example 187, 20 μM ATP, read-out: IC50 with Test in present Example
T1 construct: GST-JAK2(808-1132) is purchased from Invitrogen; purchased Invitrogen (Carlsbad, USA) #4288
T1 sequence (O60674 808-1132): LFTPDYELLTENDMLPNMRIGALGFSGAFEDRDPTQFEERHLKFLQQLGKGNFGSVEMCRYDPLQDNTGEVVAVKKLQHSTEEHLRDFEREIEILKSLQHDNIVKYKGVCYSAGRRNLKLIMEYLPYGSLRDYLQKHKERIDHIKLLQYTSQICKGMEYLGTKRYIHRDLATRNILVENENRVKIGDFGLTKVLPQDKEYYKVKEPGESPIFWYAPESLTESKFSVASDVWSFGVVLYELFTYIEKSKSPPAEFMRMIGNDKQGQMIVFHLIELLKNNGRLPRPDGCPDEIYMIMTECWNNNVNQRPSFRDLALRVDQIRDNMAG
Procedure, shortened: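 Caliper mobility-shift assay with the GST-tagged kinase domain and a fluorescently labeled peptide substrate plus ATP, run 60 min at 30° C and then stopped with EDTA buffer. Turnover was taken as the substrate/product ratio. Compounds were tested at eight final concentrations from 10 to 0.003 μM.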

GST-JAK2 = biological target: T2, GST-JAK2 (Homo sapiens, UniProt O60674); assay: JAK2 kinase assay of the general description (alternative method, flash plate); type: biochemical; settings: 1.0 μM ATP, read-out: IC50 with test in general description (named “alternative method to that given in the examples”) (“flash plate”)
T2 construct: the amino acid domain ASP751-VAL1129 of the JAK2 protein
T2 sequence (O60674 751-1129): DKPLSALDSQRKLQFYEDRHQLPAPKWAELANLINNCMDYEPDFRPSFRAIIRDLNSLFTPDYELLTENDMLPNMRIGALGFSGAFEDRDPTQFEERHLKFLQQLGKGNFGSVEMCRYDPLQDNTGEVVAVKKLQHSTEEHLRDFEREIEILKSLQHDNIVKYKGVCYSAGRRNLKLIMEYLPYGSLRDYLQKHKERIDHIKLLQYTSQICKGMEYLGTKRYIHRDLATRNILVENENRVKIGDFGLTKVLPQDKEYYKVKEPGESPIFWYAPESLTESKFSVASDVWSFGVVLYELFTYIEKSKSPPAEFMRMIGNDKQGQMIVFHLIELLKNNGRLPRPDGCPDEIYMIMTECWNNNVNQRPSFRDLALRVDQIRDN
Protocol: Baculovirus including the amino acid domain ASP751-VAL1129 of the JAK2 protein is obtainable by ProQinase, Freiburg, Germany. The virus is scaled up as following: Virus containing media is collected from the transfected cell culture and used for infection to increase its titer. Virus containing media obtained after two rounds of infection is used for large-scale protein expression. For large-scale protein expression 100 cm^2 round tissue culture plates are seeded with 5×10^7 cells/plate and infected with 1 mL of virus-containing media (approx. 5 MOIs). After 3 days the cells are scraped off the plate and centrifuged at 500 rpm for 5 min. Cell pellets from 10-20, 100 cm^2 plates, are re-suspended in 50 mL of ice-cold lysis buffer (25 mMTris-HCl, pH7.5, 2 mMEDTA, 1% NP-40, 1 mM DTT, 1 mMP MSF). The cells are stirred on ice for 15 min and then centrifuged at 5000 rpms for 20 min. The protein is purified by loading the centrifuged cell lysate onto a 2 mL glutathione-sepharose column and washed three times with 10 mL of 25 mM Tris-HCl, pH 7.5, 2 mM EDTA, 1 mM DTT, 200 mM NaCl. The GST-tagged proteins are then eluted by 10 applications (1 mL each) of 25 mM Tris-HCl, pH 7.5, 10 mM reduced-glutathione, 100 mM NaCl, 1 mM DTT, 10% Glycerol and stored at −70° C.
Cancer Cell; 5: 231-239]. The test compound is dissolved in DMSO (10 mM) and stored at −20° C. Serial dilutions are freshly made in DMSO and are […] concentrated than test solutions (“pre-dilution plates”). They are further diluted with pure water to yield “master plates” containing 3 times concentrated test solutions in 3% DMSO. The final volume of the assay is 30 μL containing 10 μL of test solution (1% DMSO), 10 μL assay mix including the assay components described by Garcia-Echeverria (2004) and in the following section as well as 10 μL enzyme. The pipetting steps can be programmed to be performed either on the MultiPROBE Iix, MultiPROBE IILx or HamiltonSTAR robots in the 96 well format.
The protein kinase assays are carried as described in details by Garcia-Echeverria (see above). The assay for JAK2 is carried out in 96-well plates at ambient temperature for 10 min (filter-biding method) or 30 min (flash plates) in a finial volume of 30 μL including the following components: 300 ng of GST-JAK2, 20 mM Tris-HCl, pH 7.5, 1.0 mM MnCl2, 10 mM MgCl2, 1 mM DTT, 3 μg/mL poly(Glu, Tyr) 4:1, 1% DMSO and 1.0 μM ATP (γ-[^33P]-ATP 0.1 μCi); The assays are terminated by the addition of 20 μl of 125 mM EDTA. The capturing of the phosphorylated peptides by the filter-binding method is performed as following: 40 μL of the reaction mixture are transferred onto Immobilon-PVDF membranes previously soaked for 5 min with methanol, rinsed with water, then soaked for 5 min with 0.5% H3PO4 and mounted on vacuum manifold with disconnected vacuum source. After spotting all samples, vacuum is connected and each well rinsed with 200 μl 0.5% H3PO4. Free membranes are removed and washed 4× on a shaker with 1.0% H3PO4, once with ethanol. Membranes are counted after drying at ambient temperature, mounting in Packard TopCount 96-well frame, and addition of 10 μl/well of Microscint. The plates are eventually sealed and counted in a microplate scintillation counter (TopCount NXT, TopCount NXT HTS, PerkinElmer, Brussels, Belgium).
The assays for the flash plate method is carried out in a total volume of 30 μL at RT in conventional 96-well flash plates. The reaction is stopped after 30 min by the addition of 20 μL of 125 mM EDTA The assay plates are then washed three times with PBS and dried at room temperature. The plates are sealed and counted in a microplate scintillation counter (TopCount NXT, TopCount NXT HTS). IC50 values are calculated by linear regression analysis of the percentage inhibition of the compound either in duplicate, at four concentrations (usually 0.01, 0.1, 1 and 10 μM) or as 8 single point IC50 starting at 10 μM following by 1:3 dilutions.

| IC50 (GST-JAK2(808-1132)) [nM] | IC50 (GST-JAK2) [nM] | melting point [°C] | Compound |
| --- | --- | --- | --- |
| 19 | 16 | 260 to 262 | CNS(=O)(=O)c1ccc(-c2cccc3nc(Nc4cc(OC)c(OC)c(OC)c4)oc23)cc1 [Example 21, N-Methyl-4-[2-(3,4,5-trimethoxy-phenylamino)-benzooxazol-7-yl]-benzenesulfonamide] |
|  | 1100 | 241 to 243 | Nc1ccc(-c2cccc3nc(Nc4ccc(N5CCOCC5)cc4)oc23)cc1 [Example 40, [7-(4-Aminophenyl)-benzooxazol-2-yl]-(4-morpholin-4-yl-phenyl)-amine] |
|  | 174 | 188 to 190 | COc1cc(Nc2nc3cccc(-c4ccc(C)c(N)c4)c3o2)cc(OC)c1OC [Example 13, [7-(3-Amino-4-methyl-phenyl)-benzooxazol-2-yl]-(3,4,5-trimethoxy-phenyl)-amine] |
|  | 1200 | 180 to 182 | COc1cccc(-c2cccc3nc(Nc4ccc(N5CCOCC5)cc4)oc23)c1 [Example 39, [7-(3-Methoxy-phenyl)-benzooxazol-2-yl]-(4-morpholin-4-yl-phenyl)-amine] |
|  | 140 | > 280 | COc1cc(Nc2nc3cccc(-c4ccc(C(=O)N(C)C)cc4)c3o2)cc(OC)c1OC [Example 25, N,N-Dimethyl-4-[2-(3,4,5-trimethoxy-phenylamino)-benzooxazol-7-yl]-benzamide] |
|  | 270 | 145 to 150 | COc1cc(Nc2nc3cccc(-c4cccc(CN)c4)c3o2)cc(OC)c1OC [Example 32, [7-(3-Aminomethyl-phenyl)-benzooxazol-2-yl]-(3,4,5-trimethoxy-phenyl)-amine] |
| 310 | 450 | > 280 | COc1cc(Nc2nc3ccnc(-c4ccc(S(N)(=O)=O)cc4)c3o2)cc(OC)c1OC [Example 38, 4-[2-(3,4,5-Trimethoxy-phenylamino)-oxazolo[5,4-c]pyridin-4-yl]-benzenesulfonamide] |
| 35 | 93 | > 280 | COc1cc(Nc2nc3cccc(-c4ccc(C(N)=O)cc4)c3o2)cc(OC)c1OC [Example 16, 4-[2-(3,4,5-Trimethoxy-phenylamino)-benzooxazol-7-yl]-benzamide] |
|  | 147 | 192 to 196 | COc1cc(Nc2nc3cccc(-c4ccc(N)cc4)c3o2)cc(OC)c1OC [Example 11, [7-(4-Amino-phenyl)-benzooxazol-2-yl]-(3,4,5-trimethoxy-phenyl)-amine] |
| 10 | 10 | 247 to 252 | COc1cc(Nc2nc3cccc(-c4ccc(S(N)(=O)=O)cc4)c3o2)cc(OC)c1OC [Example 18, 4-[2-(3,4,5-Trimethoxy-phenylamino)-benzooxazol-7-yl]-benzenesulfonamide] |
|  | 140 | 230 to 233 | COc1cc(Nc2nc3cccc(-c4ccc(S(=O)(=O)N(C)C)cc4)c3o2)cc(OC)c1OC [Example 22, N,N-Dimethyl-4-[2-(3,4,5-trimethoxy-phenylamino)-benzooxazol-7-yl]-benzenesulfonamide] |
|  | 337 | 155 to 158 | COc1cc(Nc2nc3cccc(-c4cccc(C)c4)c3o2)cc(OC)c1OC [Example 1, (7-m-Tolyl-benzooxazol-2-yl)-(3,4,5-trimethoxy-phenyl)-amine] |
| 12 | 40 | 205 to 207 | COc1cc(Nc2nc3cccc(-c4ccc(S(C)(=O)=O)cc4)c3o2)cc(OC)c1OC [Example 17, [7-(4-Methanesulfonyl-phenyl)-benzooxazol-2-yl]-(3,4,5-trimethoxy-phenyl)-amine] |
|  | 670 | 192 to 193 | COc1ccc(-c2cccc3nc(Nc4cc(OC)c(OC)c(OC)c4)oc23)cn1 [Example 12, [7-(6-Methoxy-pyridin-3-yl)-benzooxazol-2-yl]-(3,4,5-trimethoxy-phenyl)-amine] |
|  | 590 | 199 to 201 | COc1cc(Nc2nc3cccc(-c4cccc(Cl)c4)c3o2)cc(OC)c1OC [Example 9, [7-(3-Chloro-phenyl)-benzooxazol-2-yl]-(3,4,5-trimethoxy-phenyl)-amine] |
| 19 | 79 | 258 to 259 | CNC(=O)c1ccc(-c2cccc3nc(Nc4cc(OC)c(OC)c(OC)c4)oc23)cc1 [Example 24, N-Methyl-4-[2-(3,4,5-trimethoxy-phenylamino)-benzooxazol-7-yl]-benzamide] |
|  | 583 | 165 to 170 | COc1cc(Nc2nc3cccc(-c4cccnc4)c3o2)cc(OC)c1OC [Example 3, (7-Pyridin-3-yl-benzooxazol-2-yl)-(3,4,5-trimethoxy-phenyl)-amine] |
|  | 132 | 145 to 170 | COc1cc(Nc2nc3cccc(-c4cccc(N)c4)c3o2)cc(OC)c1OC [Example 10, [7-(3-Amino-phenyl)-benzooxazol-2-yl]-(3,4,5-trimethoxy-phenyl)-amine] |
|  | 99 | 167 to 170 | COc1cccc(-c2cccc3nc(Nc4cc(OC)c(OC)c(OC)c4)oc23)c1 [Example 4, [7-(3-Methoxy-phenyl)-benzooxazol-2-yl]-(3,4,5-trimethoxy-phenyl)-amine] |
|  | 570 | 187 to 190 | COc1cc(Nc2nc3cccc(-c4ccc5ncccc5c4)c3o2)cc(OC)c1OC [Example 15, (7-Quinolin-6-yl-benzooxazol-2-yl)-(3,4,5-trimethoxy-phenyl)-amine] |
